System: HEK293 cells stably expressing wildtype human APP695 protein (HEK-APPwt cells)
Test: Aβ cell based assay (Aβ1-40 secretion, ELISA)
Conditions: 1 hr room temperature then five-hour incubation at 37° C., Aβ1-40 ELISA, DAPT as 100% inhibition reference, read-out: EC50, reduction of Aβ1-40 secretion in the cell based assay
Description: Aβ Cell Based Assay Procedure
In the following assay, the proteolytic activity of BACE in cells exposed to varying concentrations of a compound of interest is measured by observing the amount of Aβ1-40 secreted from HEK293 cells (Human Embryonic Kidney epithelial cell line) stably expressing either wildtype human APP695 protein (HEK-APPwt cells).
HEK-APPwt cells were grown in high glucose DMEM (Dulbecco's Modified Eagles Medium) with 4500 mg glucose/L,L-glutamine, NaHCO3, pyrdoxin HCl, 10 mM HEPES (4-(2-hydroxyethyl)-1-piperazineethanesulfonic acid) (pH 7.4), 0.1 mM NEAA (Non-essential Amino Acids) (GIBCO Cat#11140-050), 10% fetal bovine serum and 250 μg/ml hygromycin in T-225 flasks at 37° C. with CO2 and humidity control.
Test compounds were initially prepared in DMSO and diluted with DMEM media containing 2% FBS (Fetal bovine serum) and 0.05% Tween20. Ten standard compound solutions were prepared having a range of concentrations. The standard compound solutions were used to determine the EC50 of the test compound. The range of concentrations chosen may depend on the compound's predicted potency.
To prepare the cells for the assay, a flask containing HEK-APPwt cells were trypsinized briefly (1 mL trypsin), and once the cells detached, 4 mL of 10% FBS-DMEM was added to the flask. The detached cells were centrifuged at 900 rpm for 5 min to form a pellet.
The HEK-APPwt cell pellet was re-suspended with 10 mL DMEM media containing 2% FBS. 80 μL of the cell suspension was added to each well of a 96-well cell culture plate to give 100,000 cells/well. 10 μL of a standard compound solution was added to each well of the 96-well cell culture plate followed by 10 μL of Alamar blue solution. The cells were incubated at room temperature for 1 hr, followed by a five-hour incubation in the CO2 incubator at 37° C.
At the end of the incubation, the plates were removed from incubator, and the supernatant was collected. Aβ1-40 concentration in the medium was measured by using a commercial Aβ1-40 ELISA kit (IBL, Japan). Briefly, the ELISA plates were coated with anti-human Aβ35-40 mouse IgG monoclonal antibody. A horseradish peroxidase enzyme conjugated anti-human Aβ11-28 mouse IgG monoclone antibody was used for detection. The cell culture supernatant was diluted 1:4 fold with (EIA buffer+Protease inhibitor (buffer containing Protease Inhibitor (1 mL PI/30 mL buffer). A 100 μL aliquot of the diluted supernatant was added to each well of the ELISA plate and incubated for 6 hrs at 4° C. The ELISA plate was washed 8 times with phosphate buffered saline (PBS) containing 0.05% Tween 20.
A 100 μL of detection antibody was then added and incubated for 1 hour at 4° C. The plate was washed 8 times with PBS buffer containing 0.05% Tween 20 followed by addition of 100 μL of the substrate with the chromogen tetramethyl benzidine (TMB). The plate was incubated in the dark at room temperature for about 30 min and a stop solution (1N H2SO4) was added.
The intensity of the color developed was measured at 450 nm. The optical density at 450 nm (OD450) is proportional to the concentration of human Aβ1-40 secreted by the cell. As a reference, N—[N-(3,5-difluorophenacetyl-L-alanyl)]-S-phenylglycine t-butyl ester (DAPT, a γ-secretase inhibitor) was used to indicate 100% inhibition of BACE activity. Thus, the assay measures the ability of a compound of interest to reduce Aβ1-40 secretion. Compound potency was reported as the EC50 by calculating the percent inhibition at all concentration levels and the data were fit with non-linear curve fitting algorithm using in GraphPad Prism.

COc1cccc2cc(C(=O)Nc3nc4c(C(=O)Nc5ncc[nH]5)cccc4[nH]3)ncc12 [Example 295, 8-methoxy-isoquinoline-3-carboxylic acid [4-(1H-imidazol-2-ylcarbamoyl)-1H-benzoimidazol-2-yl]-amide]
EC50: ≤ 2 µM
